Data on 12 molecules can be found in ChEMBL document CHEMBL1201862, “PubChem BioAssay data set” (2004).

Among the test systems are IGROV-1; U-251; KM12; Malme-3M; ACHN; CAKI-1; SNB-78; NCI-H23; K562; MOLT-4; SK-MEL-5; SK-OV-3; RXF 393; SF-539; HT-29; DLD-1; MDA-MB-231; DU-145; NCI/ADR-RES; MDA-MB-435.
Holding throughout (experiment): growth of human tumour cells (NCI), 48 h

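These data come from cells grown in 96-well plates and exposed to compound for 48 hours at five concentrations. GI50 is the concentration that inhibits growth by half.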 Calls of active or inactive are those of the source. Cut-off read from the data, not from the text of the source: active = GI50 up to about 1.1 µM and inactive = higher.

Take `CC(C)(C)C(=C[S+]([O-])/N=C/c1ccccc1)C(C)(C)C` (centres undefined): the GI50 in the test on IGROV-1 is 25.8 µM (inactive); in the test with U-251 it was 25.1 µM (inactive); in the test with KM12, 44.6 µM (inactive); with Malme-3M, 22.3 µM (inactive); in the test on ACHN, 36.8 µM (inactive); with CAKI-1, 30 µM (inactive). For the same molecule, the GI50 was 12.2 µM (inactive) in the test on SNB-78; 48 µM (inactive) in the test with NCI-H23; 1.23 µM (inactive) in the test on K562; 14 µM (inactive) with MOLT-4; 24.3 µM (inactive) with SK-MEL-5; 26.6 µM (inactive) with SK-OV-3. Moreover, the GI50 is 26.7 µM (inactive) with RXF 393, > 100 µM (inactive) in the test with SF-539, 38.4 µM (inactive) in the test on HT-29 and 31 µM (inactive) in the test with DLD-1.

Turning to `CC1C2C=C(O)C(=O)C(C2=O)C1c1ccccc1` (centres undefined), the GI50 in the test on IGROV-1, in the test with U-251, with KM12, in the test with Malme-3M, with ACHN and in the test with CAKI-1 was > 100 µM (inactive) throughout. Besides, the GI50 in the test with SNB-78 is 87.5 µM (inactive); in the test on NCI-H23, > 100 µM (inactive); in the test with K562, > 100 µM (inactive); with MOLT-4, > 100 µM (inactive); in the test on SK-MEL-5, > 100 µM (inactive); with SK-OV-3 it was > 100 µM (inactive). The GI50 in the test with RXF 393, in the test with SF-539, in the test on HT-29 and with DLD-1 was > 100 µM (inactive) in each case.

For the molecule `Cc1ccccc1-n1c(N)c(-c2nc3ccccc3[nH]2)sc1=S`, the GI50 with IGROV-1 was 24.8 µM (inactive); in the test on U-251, > 10 µM (inactive); with KM12 it was 20.7 µM (inactive); in the test on Malme-3M, 21.5 µM (inactive); in the test with ACHN it was 35 µM (inactive); in the test with CAKI-1, 37.8 µM (inactive). Also, the GI50 is 32.4 µM (inactive) with SNB-78; 23.3 µM (inactive) in the test on NCI-H23; 36.6 µM (inactive) with K562; 27.7 µM (inactive) with MOLT-4; 20.8 µM (inactive) in the test with SK-MEL-5; 43.4 µM (inactive) in the test with SK-OV-3. Besides, the GI50 in the test on RXF 393 is 30.1 µM (inactive); with SF-539 it was 24.1 µM (inactive); in the test with HT-29, 19.6 µM (inactive); in the test on DLD-1, 27.3 µM (inactive).

For the molecule `CN(C)c1ccccc1CC(c1c[nH]c2ccccc12)c1c[nH]c2ccccc12`, the GI50 was 15.8 µM (inactive) with IGROV-1; 12.1 µM (inactive) in the test with U-251; 4.36 µM (inactive) in the test on KM12; 17.1 µM (inactive) in the test on Malme-3M; 8.36 µM (inactive) with ACHN; 4.94 µM (inactive) in the test with CAKI-1. For the same molecule, the GI50 in the test on SNB-78 was 14.4 µM (inactive); with NCI-H23, 6.85 µM (inactive); with K562, 10.7 µM (inactive); in the test on MOLT-4, 4.35 µM (inactive); in the test on SK-MEL-5, 15.3 µM (inactive); in the test with SK-OV-3, 19.3 µM (inactive). Besides, the GI50 with RXF 393 was 7.91 µM (inactive); with SF-539, 17.2 µM (inactive); in the test with HT-29, 5.38 µM (inactive); with DLD-1, 15.7 µM (inactive).

On to `COc1ccc(/N=C\c2ccc(N(CCC#N)CCC#N)cc2)cc1`, for which the GI50 was 82 µM (inactive) with IGROV-1; > 83.2 µM (inactive) in the test on U-251; 17.1 µM (inactive) with KM12; > 100 µM (inactive) in the test with MDA-MB-231; > 84.9 µM (inactive) in the test on Malme-3M; 26.7 µM (inactive) in the test on ACHN. The GI50 in the test on CAKI-1 was 69.2 µM (inactive); in the test with DU-145, > 100 µM (inactive); in the test with NCI/ADR-RES it was > 100 µM (inactive); in the test with MDA-MB-435, 32.8 µM (inactive); in the test on SNB-78, > 100 µM (inactive); in the test with NCI-H23, > 100 µM (inactive). The GI50 with K562 was 7.62 µM (inactive); with MOLT-4 it was 66.5 µM (inactive); in the test on SK-MEL-5 it was 40.4 µM (inactive); in the test with SK-OV-3, > 100 µM (inactive); in the test on RXF 393, > 78.5 µM (inactive); with SF-539, 27.9 µM (inactive). For the same molecule, the GI50 is > 67.6 µM (inactive) with HT-29 and 24.9 µM (inactive) with DLD-1.

For `N#CCC(=O)N1CCCOCCC1`, the GI50 in the test on IGROV-1, in the test on U-251, in the test on KM12, with Malme-3M, in the test on ACHN and in the test with CAKI-1 was > 100 µM (inactive) in each case. In addition, the GI50 is > 100 µM (inactive) in the test with SNB-78; > 100 µM (inactive) in the test on NCI-H23; > 100 µM (inactive) in the test on K562; 0.46 µM (active) in the test on MOLT-4; > 100 µM (inactive) in the test on SK-MEL-5; > 100 µM (inactive) in the test on SK-OV-3. The GI50 in the test with RXF 393 is > 100 µM (inactive); in the test on SF-539 it was > 100 µM (inactive); with HT-29, 34.1 µM (inactive); with DLD-1, > 100 µM (inactive).

`N=C(N)NS(=O)(=O)c1ccc(Nc2c3ccccc3nc3c(C(=O)Nc4ccc(S(N)(=O)=O)cc4)ccc(Cl)c23)cc1`: the GI50 with IGROV-1, in the test with U-251, with KM12, with Malme-3M, in the test with ACHN and in the test on CAKI-1 was > 100 µM (inactive) in each case. Moreover, the GI50 in the test on SNB-78 was 65.5 µM (inactive); in the test on NCI-H23 it was > 100 µM (inactive); with K562, > 100 µM (inactive); in the test on MOLT-4, > 100 µM (inactive); in the test on SK-MEL-5 it was > 100 µM (inactive); with SK-OV-3, > 100 µM (inactive). Also, the GI50 in the test on RXF 393, in the test on SF-539, with HT-29 and in the test on DLD-1 was > 100 µM (inactive) each time.

Take `C=C1C(=O)OC2C1CC[C@H](C)C13OC(=O)CC1[C@@]23C` (some centres undefined): the GI50 with IGROV-1, in the test on U-251, in the test on KM12, in the test on Malme-3M, with ACHN and in the test on CAKI-1 was > 100 µM (inactive) each time. The GI50 in the test on SNB-78, with NCI-H23, in the test with K562, in the test on MOLT-4, in the test with SK-MEL-5 and in the test with SK-OV-3 was > 100 µM (inactive) in each case. Besides, the GI50 in the test with RXF 393, with SF-539, in the test on HT-29 and in the test with DLD-1 was > 100 µM (inactive) throughout.

With `COc1ccc(OC)c(/C(C)=N/NC(N)=S)c1`, the GI50 with IGROV-1, with U-251, in the test with KM12, with Malme-3M, with ACHN and with CAKI-1 was > 100 µM (inactive) each time. Moreover, the GI50 is > 100 µM (inactive) in the test on SNB-78; > 100 µM (inactive) with NCI-H23; > 100 µM (inactive) with K562; 74.8 µM (inactive) in the test with MOLT-4; > 100 µM (inactive) in the test with SK-MEL-5; > 100 µM (inactive) in the test with SK-OV-3. Also, the GI50 with RXF 393, with SF-539, with HT-29 and with DLD-1 was > 100 µM (inactive) each time.

Turning to `COC1=CC(=O)c2c(O)c3c(c(O)c2C1=O)C[C@](C)(O)C[C@@H]3O`, the GI50 is 4.61 µM (inactive) with IGROV-1; 4.69 µM (inactive) in the test with U-251; 4.13 µM (inactive) in the test with KM12; 7.74 µM (inactive) in the test on MDA-MB-231; 1.03 µM (active) in the test on Malme-3M; 5.15 µM (inactive) with ACHN. For the same molecule, the GI50 with CAKI-1 was 17.4 µM (inactive); in the test with DU-145, 4.11 µM (inactive); in the test on NCI/ADR-RES, 3.78 µM (inactive); in the test with MDA-MB-435, 1.88 µM (inactive); in the test on SNB-78, 3.85 µM (inactive); in the test with NCI-H23, 2.43 µM (inactive). The GI50 with K562 was 4.24 µM (inactive); with MOLT-4 it was 7.8 µM (inactive); in the test with SK-MEL-5, 1.33 µM (inactive); in the test with SK-OV-3, 14.1 µM (inactive); in the test with RXF 393, 5.3 µM (inactive); with SF-539, 3.08 µM (inactive). In addition, the GI50 is 2.72 µM (inactive) in the test on HT-29 and 1.31 µM (inactive) in the test on DLD-1.

On to `N=C1CSC2=NC3=C(CCC/C3=C\c3ccccc3)C(c3ccccc3)N12` (centres undefined), for which the GI50 is 5.6 µM (inactive) in the test with IGROV-1; 3.42 µM (inactive) with U-251; 3.7 µM (inactive) in the test on KM12; 17.2 µM (inactive) in the test on Malme-3M; 11.9 µM (inactive) in the test with ACHN; 12.5 µM (inactive) with CAKI-1. Moreover, the GI50 was 5.77 µM (inactive) in the test on SNB-78; 3.93 µM (inactive) in the test on NCI-H23; 3.21 µM (inactive) with K562; 2.49 µM (inactive) with MOLT-4; 6.31 µM (inactive) with SK-MEL-5; 15.1 µM (inactive) in the test with SK-OV-3. Further, the GI50 was 4.5 µM (inactive) in the test with RXF 393, 6 µM (inactive) with SF-539, 2.97 µM (inactive) in the test with HT-29 and 5.4 µM (inactive) in the test on DLD-1.

On to `COc1cc(C2C(Cl)C(=O)N2NC(=O)c2ccc(NC(C)=O)cc2)ccc1O` (centres undefined), for which the GI50 with IGROV-1, in the test on U-251, in the test on Malme-3M, with ACHN, in the test with CAKI-1 and in the test on SNB-78 was > 100 µM (inactive) throughout. In addition, the GI50 with NCI-H23, with K562, with MOLT-4, in the test with SK-MEL-5, in the test on SK-OV-3 and in the test on RXF 393 was > 100 µM (inactive) in each case. Further, the GI50 with SF-539, in the test with HT-29 and in the test on DLD-1 was > 100 µM (inactive) in each case.
